Structures can show the parent of a compound that is named as a salt. Each block holds one compound with its values, some of them ahead of it.
Legend:
[1] = target: T1, ZmDRIK1-K217-P492 (Zea mays, UniProt C0P4K9); assay: biochemical; details: read-out: dTm B, sheet ZmDRIK1-K217-P492;; DSF, Boltzmann fit, 0.1% DMSO
T1 construct: kinase domain, K217-P492
T1 sequence (C0P4K9 1-514): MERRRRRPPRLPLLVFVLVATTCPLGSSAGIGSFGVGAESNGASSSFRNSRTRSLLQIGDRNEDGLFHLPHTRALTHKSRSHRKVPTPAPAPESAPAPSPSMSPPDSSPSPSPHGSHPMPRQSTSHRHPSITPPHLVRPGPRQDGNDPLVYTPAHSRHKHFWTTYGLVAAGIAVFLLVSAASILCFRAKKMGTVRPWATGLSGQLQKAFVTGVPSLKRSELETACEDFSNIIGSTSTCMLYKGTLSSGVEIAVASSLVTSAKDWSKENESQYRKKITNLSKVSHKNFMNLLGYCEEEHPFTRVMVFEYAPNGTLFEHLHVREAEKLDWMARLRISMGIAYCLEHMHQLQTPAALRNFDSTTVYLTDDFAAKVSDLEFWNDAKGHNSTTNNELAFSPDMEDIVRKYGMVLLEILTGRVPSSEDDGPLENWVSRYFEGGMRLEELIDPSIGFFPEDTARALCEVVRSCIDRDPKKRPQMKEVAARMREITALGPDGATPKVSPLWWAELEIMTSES

[2] = target: T2, ZmDRIK1-R187-P492 (Zea mays, UniProt C0P4K9); assay: biochemical; details: read-out: dTm B, DSF, Boltzmann fit, 0.1% DMSO
T2 construct: kinase domain, R187-P492
T2 sequence (C0P4K9 1-514): T1 sequence (C0P4K9 1-514)

[3] = target: T3, ZmDRIK1-K217-S514 (Zea mays, UniProt C0P4K9); assay: biochemical; details: read-out: dTm B, sheet ZmDRIK1-K217-S514;; DSF, Boltzmann fit, 0.1% DMSO
T3 construct: kinase domain, K217-S514
T3 sequence (C0P4K9 1-514): T1 sequence (C0P4K9 1-514)

[4] = target: T4, ZmDRIK1 (DROUGHT RESPONSIVE INACTIVE KINASE 1), kinase domain (Zea mays, UniProt C0P4K9); assay: biochemical; details: read-out: dTm B, sheet ZmDRIK1-R187-S514;; DSF, Boltzmann fit, 0.1% DMSO
T4 construct: gene ZEAMMB73_Zm00001d028770; ZmDRIK1-KD R187-S514 (kinase domain)
T4 sequence (C0P4K9 187-514): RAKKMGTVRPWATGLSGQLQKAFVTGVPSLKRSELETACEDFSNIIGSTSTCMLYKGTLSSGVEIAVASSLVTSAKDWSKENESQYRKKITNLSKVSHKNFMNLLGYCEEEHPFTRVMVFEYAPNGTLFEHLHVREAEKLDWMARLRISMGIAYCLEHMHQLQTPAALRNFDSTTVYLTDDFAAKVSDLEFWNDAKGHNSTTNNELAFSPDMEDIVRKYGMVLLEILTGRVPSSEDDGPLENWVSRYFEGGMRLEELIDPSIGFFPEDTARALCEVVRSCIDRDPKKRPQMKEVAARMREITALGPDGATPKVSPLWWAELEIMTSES

[5] = target: T4, ZmDRIK1 (DROUGHT RESPONSIVE INACTIVE KINASE 1), kinase domain; assay: ITC; cocrystal structure at […] Å; DSF (ΔTm > […] °C); type: binding

ΔTm at 10 µM [1]: 1.22 °C
ΔTm at 10 µM [2]: -18.3 °C
ΔTm at 10 µM [3]: 2.58 °C
ΔTm at 10 µM [4]: 0.194 °C
Structure (SMILES): Oc1ccc(-c2nc(-c3ccc(F)cc3)c(-c3ccncc3)[nH]2)cc1 [SB202190 (FHPI)]

ΔTm at 10 µM [1]: -0.965 °C
ΔTm at 10 µM [2]: -0.214 °C
ΔTm at 10 µM [3]: -0.418 °C
ΔTm at 10 µM [4]: -1 °C
Structure (SMILES): Cc1ccc(NC(=O)c2cccc(N(C)C)c2)cc1NC(=O)c1ccc(O)cc1 [ZM 336372]

ΔTm at 10 µM [1]: -1.19 °C
ΔTm at 10 µM [2]: -0.498 °C
ΔTm at 10 µM [3]: -0.731 °C
ΔTm at 10 µM [4]: -0.643 °C
Structure (SMILES): c1cncc(CN2CCC(n3ncc4c(N5CCOCC5)nc(-c5ccc6[nH]ccc6c5)nc43)CC2)c1 [WAY-600]

ΔTm at 10 µM [1]: -0.984 °C
ΔTm at 10 µM [2]: -0.311 °C
ΔTm at 10 µM [3]: -0.317 °C
ΔTm at 10 µM [4]: -0.897 °C
Structure (SMILES): Cc1cnc(Nc2ccc(N3CCN(C)CC3)cc2)nc1Nc1cccc(S(=O)(=O)NC(C)(C)C)c1 [TG101209]

Second part, the compound before the results:

Structure (SMILES): Cc1cc(Nc2cc(N3CCN(C)CC3)nc(/C=C/c3ccccc3)n2)n[nH]1 [ENMD-2076]
ΔTm at 10 µM [1]: 3.49 °C
ΔTm at 10 µM [2]: 4.32 °C
ΔTm at 10 µM [3]: 4.13 °C
ΔTm at 10 µM [4]: 4.28 °C
Kd [5]: 551 nM

Structure (SMILES): C[C@@H]1CN(CC(=O)Nc2ccc3c(c2)Cc2cccc(-c4cc(=O)cc(N5CCOCC5)o4)c2S3)C[C@H](C)O1 [KU-60019]
ΔTm at 10 µM [1]: -1.19 °C
ΔTm at 10 µM [2]: -0.366 °C
ΔTm at 10 µM [3]: -0.426 °C
ΔTm at 10 µM [4]: -1.17 °C

Structure (SMILES): Cc1cc(C(=O)NOCCO)c(Nc2ccc(I)cc2F)n(C)c1=O [AZD8330]
ΔTm at 10 µM [1]: -0.83 °C
ΔTm at 10 µM [2]: -0.162 °C
ΔTm at 10 µM [3]: -0.42 °C
ΔTm at 10 µM [4]: -0.935 °C

Structure (SMILES): CN([C@@H](Cc1ccc(OS(=O)(=O)c2cccc3cnccc23)cc1)C(=O)N1CCN(c2ccccc2)CC1)S(=O)(=O)c1cccc2cnccc12 [KN-62]
ΔTm at 10 µM [1]: -1.79 °C
ΔTm at 10 µM [2]: -1.15 °C
ΔTm at 10 µM [3]: -0.945 °C
ΔTm at 10 µM [4]: -1.39 °C

Structure (SMILES): N=C(N)NC(=N)NCCc1ccccc1 [Phenformin HCl]
ΔTm at 10 µM [1]: -1.3 °C
ΔTm at 10 µM [2]: -0.125 °C
ΔTm at 10 µM [3]: -0.473 °C
ΔTm at 10 µM [4]: -0.596 °C

Structure (SMILES): Cc1ccc([N+](=O)[O-])cc1S(=O)(=O)N(C)/N=C/c1cnc2ccc(Br)cn12 [PIK-75]
ΔTm at 10 µM [1]: -1.46 °C
ΔTm at 10 µM [2]: -0.296 °C
ΔTm at 10 µM [3]: -0.221 °C
ΔTm at 10 µM [4]: -0.734 °C

Structure (SMILES): Cc1c(CN2CCN(C(=O)[C@H](C)O)CC2)sc2c(N3CCOCC3)nc(-c3cnc(N)nc3)nc12 [GDC-0980 (RG7422)]
ΔTm at 10 µM [1]: -1.16 °C
ΔTm at 10 µM [2]: -0.177 °C
ΔTm at 10 µM [3]: -0.304 °C
ΔTm at 10 µM [4]: -0.737 °C

Structure (SMILES): Cc1cc(Nc2ncnc3ccc(-c4ccc(CNCCS(C)(=O)=O)o4)cc23)ccc1Oc1ccn2ncnc2c1 [HER2-Inhibitor-1]
ΔTm at 10 µM [1]: -0.972 °C
ΔTm at 10 µM [2]: 0.197 °C
ΔTm at 10 µM [3]: 0.102 °C
ΔTm at 10 µM [4]: -0.782 °C

Structure (SMILES): C=CC(=O)Nc1ccc2ncnc(Nc3ccc(OCc4cccc(F)c4)c(Cl)c3)c2c1 [AST-1306]
ΔTm at 10 µM [1]: -1.48 °C
ΔTm at 10 µM [2]: -5.11 °C
ΔTm at 10 µM [3]: -1.18 °C
ΔTm at 10 µM [4]: -7.98 °C

Structure (SMILES): CN1CCC(c2c(O)cc(O)c3c(=O)cc(-c4ccccc4Cl)oc23)C1CO (stereo not drawn) [P276-00]
ΔTm at 10 µM [1]: -0.275 °C
ΔTm at 10 µM [2]: -0.274 °C
ΔTm at 10 µM [3]: -0.359 °C
ΔTm at 10 µM [4]: -0.748 °C

Reference: article PMC7158045 (BMC Plant Biology, 2020)
